This is an account of results in US9662328B2, “Targeting human thymidylate kinase induces DNA repair toxicity in malignant tumor cells” (NATIONAL YANG-MING UNIVERSITY, priority 2010, dated 2017).

One series concerns HCT-116 p53−/− cells. Nature of the series: γH2AX foci staining to indicate DNA damage (genotoxicity). It is filed as cell-based. As to the method:
FIG. 1. TMPK knockdown has no genotoxicity but promoting doxorubicin-induced cell death in p53 proficient and deficient colon cancer cells. […] These cells were fixed for γH2AX foci staining to indicate DNA damage and Western blotting analysis. (B-C) FITC-labeled annexin V apoptosis assay. (B) p53(+/+) HCT-116 were and (−/−) HCT-116 cells were infected with or without lentiviral TMPK^shRNA for 72 hr, treated with 0.5 μM doxorubicin for 24 hr (C) Cells were with or without lentiviral TS^shRNA for 72 hr with a subsequent 1 μM doxorubicin treatment for 24 hr as indicated Cells were then stained with FITC-labeled annexin V and observed by fluorescent microscopy. Green-positive indicates apoptotic cell.
For γH2AX staining, cells were fixed with 4% paraformaldehyde for 30 min at room temperature and were incubated with TBS (50 mM Tris-HCl, pH 7.4, 150 mM NaCl) plus 0.3% Triton X-100 for 5 min. The coverslips were blocked with MAXblock™ (Active Motif) for 1 h at 37° C., followed by staining with primary antibodies: anti-γH2AX monoclonal antibody (1:1000), anti-Rad51 polyclonal
To understand the differential DNA damage effect of blocking thymidylate kinase (TMPK) and thymidylate synthase (TS) in colon cancer cells. TMPK or TS expression was depleted in colon cancer cells, HCT-116 p53^−/−, by infection with lentivirus expressing corresponding shRNA. […]

Series [1] has as its target T1, hTMPK (Homo sapiens, UniProt P23919).
T1 sequence (P23919 1-212): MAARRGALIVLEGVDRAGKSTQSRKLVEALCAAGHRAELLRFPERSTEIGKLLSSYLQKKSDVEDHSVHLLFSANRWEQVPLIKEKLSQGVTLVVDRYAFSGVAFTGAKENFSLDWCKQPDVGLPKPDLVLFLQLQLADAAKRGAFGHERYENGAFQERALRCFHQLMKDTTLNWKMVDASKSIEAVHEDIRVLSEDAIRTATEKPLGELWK
Nature of the series: In vitro inhibitory activity against human TMPK at 2 μM. It is filed as biochemical. As to conditions: test compounds at 2 μM concentration. As to the method: (§1) The TMPK reaction was started by adding purified hTMPK in 50 μl of TMPK assay buffer (100 mM Tris-HCl, pH 7.5, 100 mM KCl, 10 mM MgCl2, 50 μM ATP and 100 μM dTMP) in 96 wells plate at 25° C. for 10 min and terminated by adding 200 μl of DTNB (100 μM), followed by transferring 10 μl of reaction solution to a white 96-wellplate containing 90 μl of luciferase assay buffer (50 mM Glycine, 0.5 mM EDTA and 5 mM EDTA, pH 7.0, 0.1 μg of luciferase, 50 μM luciferin and 0.1% BSA). The luminescence was measured with a luminescence counter (Packard).
(§2) All reactions were performed in 96-well plates in an assay volume of 100 μl. The activity of hTMPK was measured at 25° C. using a modified NADH coupled colorimetric assay as described (Agarwal et al., 1978; Miyata et al., 2003; Ostermann et al., 2003), in which purified hTMPK was added to the buffer containing 100 mM Tris-HCl, pH 7.5, 100 mM KCl, 10 mM MgCl2, 0.5 mM phosphoenol pyruvate, 0.25 mM NADH, 5 units of lactate dehydrogenase, 4 units of pyruvate kinase, 1 mM ATP, and 200 μM dTMP. The change of NADH was measured by reading the absorbance at 340 nm. One unit of TMPK activity is defined as the conversion of […] of TMP to TDP per minute.
The in vitro inhibitory activities of test compounds (at 2 μM concentration) against human TMPK are shown in Table 3 and compared with that of YMU1 and YMU2.

Series [2] deals with T1, hTMPK. Nature of the series: IC50 determination by enzymatic assay. It is filed as biochemical. As to the method: as §1, §2
In one embodiment, the IC50 values were determined by enzymatic assay.

The target of series [3] is T1, hTMPK. Nature of the series: Inhibition constant (Ki) by NADH-coupled TMPK assay. It is filed as biochemical. As to conditions: pre-incubated with 0.5 μg purified hTMPK for 10 min. The procedure: as §2
For determination of inhibition constant (Ki value), the inhibitor at the indicated concentration was pre-incubated with 0.5 μg of purified hTMPK protein for 10 min, and the initial velocity of the TMPK reaction was measured in the presence of ATP (1 mM) and different concentrations of TMP (2-200 μM) or in the presence of TMP (200 μM) and different concentrations of ATP (5-1000 μM) using NADH-coupled TMPK assay as described in the Methods of the Invention section. The Ki value was calculated from an equation of Ki=[I]/(Vmax/Vmax^I−1) wherein [I] is the concentration of inhibitor, and Vmax^I is the maximal velocity in the presence of inhibitor.

The subject of series [4] is Human RM osteosarcoma cells. Nature of the series: Colony formation analysis of osteosarcoma cells. Conditions: for effect on suppressing colony formation, single agent: compound 5 μM or doxorubicin 20 nM alone, 2 days, replated for 1 week; for colony formation, combination with doxorubicin: compound 5 μM plus doxorubicin 20 nM. It is filed as cell-based. The procedure: FIG. 5. The effect of TMPK inhibitors alone or in combination with a chemotherapeutic agent on viability of osteosarcoma cells. (A) Human RM osteosarcoma cells (a representative bone cancer cells) were seeded at 2×10^4/35 mm dish and treated with Doxorubicin (20 nM), compound I-d-7 (5 μM), compound I-d-6 (5 μM) as indicated. After 2 days, medium was replaced with fresh medium without drug and cells were replated to a 24-well plate at 600 cells/well for 1 week for colony formation analysis.

A further series deals with MDA-MB231 cell. Nature of the series: Doxorubicin sensitization in MDA-MB231 cell treatment. The format is cell-based. As to conditions: compound at 2 μM. As to the method: Cells plated into a 96-well plate (10^3 cells/well) were treated and cell viability was measured by MTS assay (Promega) (Cory et al., 1991). An annexin V-fluorescein isothiocyanate (FITC) apoptosis kit (Calbiochem) was used to detect apoptosis.

The structures appear in SMILES notation. “And” between values parts separate entries of the source, which are not always exact repeats. Equal values may be shown once.

As to `O=c1[nH]c(=O)n([C@H]2C[C@H](O)[C@@H](CO)O2)cc1F` [FdUrd, 5-fluoro-2′deoxyuridine], in the series with HCT-116 p53−/− cells (YMU1 2 μM for 2 days, FdUrd 2 μM for 1 day), the “DNA lesions in nuclei (γH2AX foci)” value is “gave DNA lesions in nuclei”.

For `Cc1cc(O)nc2sn(CC(=O)N3CCN(C(=O)OC(C)(C)C)CC3)c(=O)c12` [I-a-5, Tert-butyl 4-[(6-hydroxy-4-methyl-3-oxoisothiazolo[5,4-b]pyridin-2(3H)-2-yl)acetyl]piperazine-1-carboxylate], 2 µM produced 93 ± 9% inhibition on hTMPK [1]. Half-maximal inhibition at hTMPK [2] (IC50) was put at 0.5 µM.

For `O=C(NCC(=O)N1CCN(C(=O)Cn2sc3ncccc3c2=O)CC1)Nc1ccccc1` [I-b-1, 1-(2-Oxo-2-(4-(2-(3-oxoisothiazolo[5,4-b]pyridin-2(3H)-yl)acetyl)piperazin-1-yl)ethyl)-3-phenylurea], the inhibition – broadly, how much of the control response was suppressed – at 2 µM against hTMPK [1] is 54 ± 7%. In addition, at hTMPK [2], the IC50 – broadly, the concentration needed to halve the response being measured – worked out at 1.81 ± 0.28 µM.

For `Cc1cc(C)c2c(=O)n(CC(=O)N3CCN(C(=O)Cn4sc5nc(C)cc(C)c5c4=O)CC3)sc2n1` [I-b-4, 1,4-Bis[(3-oxo-4,6-dimethylisothiazolo[5,4-b]pyridin-2-yl)acetyl]piperazine], testing at 2 µM at hTMPK [1] gave an inhibition of 32 ± 2%. Further, on hTMPK [2], the IC50 came out at 0.8 µM.

Consider `Cc1cc(C)c2c(=O)n(CC(=O)N3CCN(C(=O)Cn4sc5ccccc5c4=O)CC3)sc2n1` [I-b-5, 4-[(3-Oxo-benzo[d]isothiazol-2-yl)acetyl]-1-[(4,6-dimethyl-3-15 oxoisothiazolo[5,4-b]pyridin-2-yl)acetyl]piperazine], for which 2 µM produced 79 ± 12% inhibition against hTMPK [1]. Moreover, at hTMPK [3], the Ki (commonly the dissociation constant of the complex between target and ligand, obtained from inhibition or displacement) was determined as 0.17 ± 0.07 µM.

In turn, `Cc1cc(N)nc2sn(CC(=O)N3CCN(C(=O)Cn4sc5nc(N)cc(C)c5c4=O)CC3)c(=O)c12` [I-b-6, 1,4-Bis[(6-amino-4-methyl-3-oxoisothiazolo[5,4-b]pyridin-2-yl)acetyl]piperazine] came in with an inhibition at 2 µM against hTMPK [1] of 48 ± 5%. On hTMPK [2], the IC50 amounted to 1.1 µM.

For the molecule `CC(C)(C)OC(=O)N1CCN(C(=O)Cn2sc3ccc(F)cc3c2=O)CC1` [I-d-6, Tert-butyl 4-(2-(5-fluoro-3-oxobenzo[d]isothiazol-2(3H)-yl)acetyl)piperazine-1-carboxylate], the inhibition at 2 µM on hTMPK [1] stood at 87 ± 5%. Besides, in series [4], the “effect on suppressing colony formation, single agent” value (shortened to “effect”) is “significant effect on suppressing colony formation” and the “colony formation, combination with doxorubicin” value was “further decreased colony formation”.

`CC(C)(C)OC(=O)N1CCN(C(=O)Cn2sc3cc(F)ccc3c2=O)CC1` [I-d-7, Tert-butyl 4-(2-(6-fluoro-3-oxobenzo[d]isothiazol-2(3H)-yl)acetyl)piperazine-1-carboxylate] yielded an inhibition at 2 µM against hTMPK [1] of 66 ± 7%. In addition, in series [4], the “effect” value is on record as “significant effect on suppressing colony formation” and the “colony formation, combination with doxorubicin” value is “further decreased colony formation”.

At hTMPK [1], `O=C(NCC(=O)N1CCN(C(=O)Cn2sc3ccccc3c2=O)CC1)Nc1ccccc1` [I-e-5, 1-(2-Oxo-2-(4-(2-(3-oxobenzo[d]isothiazol-2(3H)-yl)acetyl)piperazin-1-yl)ethyl)-3-phenylurea] yielded an inhibition at 2 µM of 100 ± 7%. At hTMPK [2], the IC50 was 1.29 µM and 1.73 µM.

As for `CCCCNC(=O)NCC(=O)N1CCN(C(=O)Cn2sc3ccccc3c2=O)CC1` [I-e-7, Butyl-3-(2-oxo-2-(4-(2-(3-oxobenzo[d]isothiazol-2(3H)-yl)acetyl)piperazin-1-yl)ethyl)urea], at hTMPK [1], testing at 2 µM gave an inhibition of 50 ± 5%.

The molecule `O=C(Cn1sc2ccccc2c1=O)N1CCN(C(=O)Cn2sc3ccccc3c2=O)CC1` [I-e-8, 1,4-Bis[(3-oxo-benzo[d]isothiazol-2-yl)acetyl]piperazine] registered an inhibition at 2 µM on hTMPK [1] of 89 ± 6%. The molecule further registered an IC50 on hTMPK [2] of 0.45 µM.

As to `O=C(Cn1sc2ccccc2c1=O)N1CCNCC1` [I-f-1, 2-(2-Oxo-2-(piperazin-1-yl)ethyl)benzo[d]isothiazol-3(2H)-one], the inhibition at 2 µM at hTMPK [1] was 34 ± 2%.

`O=C(Cn1sc2cc(Br)ccc2c1=O)N1CCNCC1` [I-f-2, 6-Bromo-2-(2-oxo-2-(piperazin-1-yl)ethyl)benzo[d]isothiazol-3(2H)-one] showed an inhibition at 2 µM on hTMPK [1] of 38 ± 14%.

`CCOC(=O)N1CCN(C(=O)Cn2sc3nc(C)cc(C)c3c2=O)CC1` [YMU1, reference compound] displayed an inhibition at 2 µM against hTMPK [1] of 42 ± 15%. The IC50 against hTMPK [2] was found to be 2.21 ± 0.06 µM. Further, in the series with HCT-116 p53−/− cells (human, 2 μM), the “DNA lesions in nuclei (γH2AX foci)” value is recorded as “not”.

`CCOC(=O)N1CCN(C(=O)Cn2sc3nc(C)cc(C)c3c2=O)CC1` [YMU1]: the “enhancement on doxorubicin sensitization” value in the series on MDA-MB231 cell turned out to be 30 fold.

For the molecule `Cc1cc(C)c2c(=O)n(CC(=O)N3CCN(C(=O)OC(C)(C)C)CC3)sc2n1` [YMU2, reference compound], the inhibition at 2 µM at hTMPK [1] turned out to be 46 ± 2%.

Regarding `COc1cccc2c1C(=O)c1c(O)c3c(c(O)c1C2=O)C[C@@](O)(C(=O)CO)C[C@@H]3O[C@H]1C[C@H](N)[C@H](O)[C@H](C)O1` [doxorubicin, reference compound], in series [4], the “effect” value was “no effect”.
